Results: the supplement of paper PMC5762512

Legend:
Assay in all cases: IC50 cell viability (Alamar Blue, 96 h)
[1] = tested on: HS-27
Description: (§1)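 Cells in log-phase growth were seeded in 96-well plates and treated with drug for 96 h at 37°C using 8-point serial dilutions from 0.0025 to 10 µM. Viability was read by Alamar Blue fluorescence after 6 h and normalised to positive and vehicle (DMSO) controls. IC50 values were fitted in ActivityBase; the value given is the mean of two independent experiments.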

[2] = tested on: PER-403
Description: as §1

[3] = tested on: PER-704
Description: as §1

[4] = tested on: PER-624
Description: as §1

[5] = tested on: PER-712
Description: as §1

[6] = tested on: 11060
Description: as §1

[7] = tested on: TC797
Description: as §1

[8] = tested on: 10326
Description: as §1

[9] = tested on: PER-535
Description: as §1

[10] = tested on: TY82
Description: as §1

[11] = tested on: PER-536
Description: as §1

[12] = tested on: CAKI-1
Description: as §1

[13] = tested on: 8645
Description: as §1

[14] = tested on: 14169
Description: as §1

[15] = tested on: PER-891
Description: as §1

[16] = tested on: WI-38
Description: as §1

[17] = tested on: RPMI2650
Description: as §1

[18] = tested on: HCC2429
Description: as §1

[19] = tested on: A549
Description: as §1

[20] = tested on: P896-CL
Description: as §1

IC50 cell viability [18] [nM]	IC50 cell viability [19] [nM]	SMILES	IC50 cell viability [1] [nM]	IC50 cell viability [2] [nM]	IC50 cell viability [3] [nM]	IC50 cell viability [4] [nM]	IC50 cell viability [5] [nM]	IC50 cell viability [6] [nM]	IC50 cell viability [7] [nM]	IC50 cell viability [8] [nM]	IC50 cell viability [9] [nM]	IC50 cell viability [10] [nM]	IC50 cell viability [11] [nM]	IC50 cell viability [12] [nM]	IC50 cell viability [13] [nM]	IC50 cell viability [14] [nM]	IC50 cell viability [15] [nM]	IC50 cell viability [16] [nM]	IC50 cell viability [17] [nM]	IC50 cell viability [20] [nM]
229	249	COc1cc(Nc2ncc3c(n2)-c2ccc(Cl)cc2C(c2c(F)cccc2OC)=NC3)ccc1C(=O)O [Alisertib]	5390	38.1	4880	873	306	168	> 10000	149	37.4	> 10000	1580	8100	327	67.8	> 10000	6140	> 10000	2410
> 10000	2740	C#Cc1cccc(Nc2ncnc3cc(OCCOC)c(OCCOC)cc23)c1 [Erlotinib]	4470	8770	> 10000	3260	> 10000	8680	> 10000	> 10000	> 10000	> 10000	> 10000	> 10000	1160	> 10000	7100	3120	> 10000	2580
< 2.5	6.14	CC[C@]1(O)C[C@H]2CN(CCc3c([nH]c4ccccc34)[C@@](C(=O)OC)(c3cc4c(cc3OC)N(C=O)[C@H]3[C@@](O)(C(=O)OC)[C@H](OC(C)=O)[C@]5(CC)C=CCN6CC[C@]43[C@@H]65)C2)C1 [Vincristine]	7.19	< 2.5	6.18	7.58	8.68	< 2.5	5.35	< 2.5	6.92	8.25	20.7	5020	< 2.5	< 2.5	27.5	8.35	> 10000	8.77
7.62	9.64	Nc1ccn([C@@H]2O[C@H](CO)[C@@H](O)C2(F)F)c(=O)n1 [Gemcitabine]	137	4.92	36.2	6.22	49.2	9.77	16.6	14.7	5.26	77.5	5.38	135	12.4	6.73	568	341	3330	29.6
> 10000	2740	COc1cc2ncnc(Nc3ccc(F)c(Cl)c3)c2cc1OCCCN1CCOCC1 [Gefitinib]	7850	> 10000	> 10000	2210	> 10000	5370	> 10000	5890	> 10000	> 10000	> 10000	> 10000	–	6050	6540	5190	> 10000	1450
